Results taken from article PMC6987146, “Potent inhibition of HIV replication in primary human cells by novel synthetic polyketides inspired by Aureothin” (Scientific Reports, 2020).
Where two headings read alike, the source gives them in different places.

Key:
HIV-1LAI = test: EASY-HIT assay: infectious virus production by LC5-RIC reporter cells exposed to HIV-1LAI; assay type: cell-based; conditions: for Infectious virus production, median (fluorescent signal normalized to untreated virus-exposed cultures): 50 nM, LC5-RIC, secondary plates 72 h after transfer
Protocol: To identify natural compounds with anti-HIV activity we screened a collection of 10,000 natural compounds: Anti-HIV activity was evaluated by determining compound effects on infectious virus production by LC5-RIC cells which are highly susceptible for HIV and contain a DsRed1-encoding reporter gene activated by HIV-infection[6]–[8]. For screening, cultures of LC5-RIC reporter cells were first exposed to virus in the presence of the compound (first-step of the assay). Subsequently, supernatants of these cultures were transferred to secondary plates with uninfected LC5-RIC cells. The fluorescent signal of the cultures in the secondary plates served as a measure of compound effects on infectious virus production.
Anti-HIV activities of compounds were profiled in LC5-RIC cells with the EASY-HIT assay as described in[6]. Briefly, LC5-RIC cells were first exposed to virus and compounds (first step of the assay). Compound effects on infectious virus production were determined by transferring aliquots of supernatants of compound-treated cultures to secondary plates and measurement of fluorescent signal intensities in secondary plates after 72 h (second step of the assay). Fluorescent signal intensities determined for compound-treated cultures were normalized to those determined for untreated virus-exposed cultures.

[1] = system: HIV-1 transcripts (unspliced, singly spliced, multiply spliced, all); test: Relative levels of HIV-1 transcript classes by qRT-PCR in LC5-RIC cells; assay type: cell-based; conditions: HIV-1LAI, 48 h, vs untreated
Protocol: LC5-RIC cells were plated, treated with compounds and inoculated with virus as described for Alu-PCR above. Cells were then harvested and RNA was extracted using the RNeasy Mini Kit (QIAGEN), according to the manufacturer’s protocol. For cDNA synthesis, 1 µg of total RNA was reverse transcribed by SuperScript II reverse transcriptase (Invitrogen) according to manufacturer’s recommendations. qRT-PCR was performed with the Roche Light Cycler® 480II 96 (Version 1.5.0.39), using LightCycler® 480 SYBR Green I Mastermix (Roche). Quantitative PCR for HIV-1 transcripts was performed with primers specific for unspliced, singly spliced or multiply spliced HIV-1 transcripts as well as for ‘all HIV transcripts’; RNA Polymerase II transcripts were analysed as internal reference gene. Primer sequences are given in Supplementary Methods and binding sites shown in Supplementary Fig. S3. Data was analysed with the second derivative maximum method. The relative amount of HIV-1 transcripts in treated versus untreated samples was calculated by the 2^(−ΔΔCt) method, using RNA polymerase II as reference gene.
The following primers were used to perform the qRT-PCR analysis (primer sequences 5’ ? 3’): multiply spliced, forward: ATGGAGCCAGTAGATCCTAG, reverse: AGT CTC TCA AGC GGT GGT ^1; singly spliced, forward: GGc GGC GAC TGG AAG AGG C, reverse: CTATGATTACTATGGACCACA ^1; unspliced, forward: CTG AAG CGC GCA CGG CAA, reverse: GACGCTCTCGCACCCATCTC ^1; ‘all HIV transcripts’, forward: GTGTGTGGTAGATCCACAGATCAAGG, reverse: CCAGTCACACCTCAGGTACCTTTAAGACC ^2; RNA polymerase II, forward: GCA CCA CGT CCA ATG ACA T, reverse: GTG CGG CTG CTT CCA TAA ^3. See primer binding sites in different HIV transcripts in Fig. S1.

[2] = CellTiter-Glo 2.0 cell viability assay in PBMC; assay type: cell-based, human; conditions: human
Protocol: (§1) The following assays were used to profile cell safety of compound treatment in HIV-exposed cultures (LC5-RIC or PBMC): (1) CellTox^TM Green Cytotoxicity Assay, Promega, measures binding of a fluorescent dye to DNA of cells with impaired membrane integrity; (2) CellTiter-Glo® 2.0 Assay, Promega, which measures the amount of ATP in viable cells after lysis using an assay with luminescence read-out. Cells were plated into black 96-well plates followed by overnight incubation at 37 °C, 5% CO2. Compounds dissolved in DMSO were screened at multiple concentrations from 0.6 to 10,000 nM at a final DMSO concentration of 0.04% followed by additional 48 h incubation. Both assays were performed according to manufacturer’s recommendations and consecutively in the above mentioned order. Cells were washed once with PBS between the assays.

[3] = CellTiter-Glo 2.0 cell viability assay in LC5-RIC cells; assay type: cell-based; conditions: human; Table S2; CellTiter-Glo 2.0; mean ± SD
Protocol: as §1

SMILES | Infectious virus production, median (fluorescent signal normalized to untreated virus-exposed cultures) (HIV-1LAI) | IC50 (HIV-1LAI; Human immunodeficiency virus 1, read-out: Anti-HIV in LC5-RIC, IC50) | relative levels of multiply spliced HIV transcripts [1] | CC50 at 48 h [2] | CC50 at 48 h [3] | IC90 (HIV-1LAI; Human immunodeficiency virus 1, read-out: IC90, 90% inhibitory concentration) | IC50 (HIV-1LAI; LC5-RIC cells exposed to HIV-1LAI, infectious virus production, mean ± SD, listed as #7, read-out: IC50, half maximal inhibitory concentration) | IC50 (HIV-1LAI; LC5-RIC cells exposed to HIV-1LAI, infectious virus production, mean ± SD, read-out: IC50, half maximal inhibitory concentration) | levels of singly spliced HIV transcripts [1] | levels of unspliced HIV transcripts [1] | overall abundance of HIV mRNAs (all transcripts primers) [1] | CC50 at 48 h ([2]; CellTiter-Glo 2.0, PBMC, read-out: Cell viability in PBMC, CC50)
CN1CC[C@H](c2c(O)cc(O)c3c(=O)cc(-c4ccccc4Cl)oc23)[C@H](O)C1 [Flavopiridol] | 10.38 | 0.0109 ± 0.0005 µM | much stronger inhibitory effect on levels of multiply spliced transcripts than compound #7 | 0.12 ± 0.0135 µM | 0.1274 ± 0.00094 µM |  |  |  |  |  |  | 
COc1oc(C2C/C(=C/C(C)=C/c3ccc(C(F)(F)F)cc3)CO2)c(C)c(=O)c1C (stereo not drawn) [compound #7] | 0.96 |  | did not reduce relative levels of multiply spliced transcripts |  | > 10 µM | 0.0134 ± 0.00175 µM | < 0.01 µM | 0.0049 ± 0.00016 µM | strongly diminished | strongly diminished | reduced the overall abundance of HIV mRNAs | > 10 µM
